Assay results: PMC8074792, “An ω-3, but Not an ω-6 Polyunsaturated Fatty Acid Decreases Membrane Dipole Potential and Stimulates Endo-Lysosomal Escape of Penetratin” (Frontiers in Cell and Developmental Biology, 2021)

Experiments:
THP-1 cells [1] = test: Membrane fluidity, TMA-DPH fluorescence anisotropy; type: cell-based, human; conditions: 200 μM sterol 1 h or 50 μM fatty acid 48 h, 37°C, n = 6, vs control
Method: (§1) 4′-(trimethylammonio)-diphenylhexatriene (TMA-DPH) was purchased from Sigma-Aldrich, dissolved in tetrahydrofuran and used for determination of membrane fluidity as described previously ([Batta et al., 2018]). […] Fluorescence intensities were measured without washing using a Fluorolog-3 spectrofluorometer (Horiba Jobin Yvon, Edison, NJ, United States) with the temperature of the cuvette holder adjusted to 37°C by a circulating water bath. The fluorescence anisotropy (r) of TMA-DPH was determined in the L-format after excitation at 352 nm and measurement of fluorescence intensities at 430 nm according to the formula: […]

JY cells [2] = test: Membrane fluidity, TMA-DPH fluorescence anisotropy; type: cell-based, human; conditions: 200 μM sterol 1 h or 50 μM fatty acid 48 h, 37°C, n = 6, vs control
Method: as §1

THP-1 cells [3] = test: Membrane dipole potential, F66 emission ratio, flow cytometry; type: cell-based, human; conditions: n = 5; for effect of fatty acid pretreatment on cholesterol-induced DP elevation (Rem, F66): 50 μM fatty acid 48 h, then 50 or 200 μM cholesterol 1 h; for Rem, F66: fatty acid 12.5-50 μM for 48 h
Method: (§2) The human acute monocytic leukemia-derived cell line THP-1 and the human Epstein-Barr virus (EBV) transformed lymphoblastoid cell line JY were obtained from the American Type Culture Collection (Manassas, VA, United States) and cultivated according to their specifications. […] As controls, cells were treated with the corresponding amounts of native MβCD complexes not containing sterols. To study the effects of fatty acids, cells were incubated for 48 h in medium supplemented with saturated stearic acid (SA, Sigma Aldrich), ω-3 polyunsaturated α-linolenic acid (ALA, Sigma Aldrich) or ω-6 polyunsaturated γ-linolenic acid (GLA, Sigma Aldrich) at various concentrations ranging from 12.5 to 50 μM. […] After washing, the fluorescence intensities of cells were determined with a FACS Aria III flow cytometer (Becton Dickinson, Mountain View, CA, United States) at 37°C. […] Data analysis was carried out in FCS Express (De Novo Software, Los Angeles, CA, United States). The ratio of emitted intensities in the two wavelength ranges (N^∗/T^∗) was determined for each cell and the average value was calculated for each sample from the data of living cells gated on FSC-SSC dot plots. The value of N^∗/T^∗ ratio negatively correlates with the magnitude of DP ([Kovacs et al., 2017]).

JY cells [4] = test: as above; type: cell-based, human; conditions: 50 μM fatty acid 48 h, then 50 or 200 μM cholesterol 1 h, n = 5
Method: as §2

THP-1 cells [5] = conditions: 50 μM fatty acid 48 h, LysoTracker Deep Red and 10 µM PY3174 2 h at 37°C, extent similar to cell membrane
Method: (§3) Measurement of hydration of lysosomal membranes with fluorescence microscopy […]
(§4) The PY3174 fluorophore capable of providing information about the hydration of the cell membrane […]
(§5) via an emission ratiometric fluorescence microscopy assay was a kind gift from Leslie M. Loew […]
(§6) (University of Connecticut, CT) (1). For these measurements, cells were placed onto an 8-well […]
(§7) chambered coverglass and labeled with 100 nM LysoTracker Deep Red (Thermo Fisher Scientific, […]
(§8) Waltham, MA) for visualization of lysosomes and 10 µM PY3174 for 2 hours at 37°C to stimulate the […]
(§9) endocytosis of the environment-sensitive fluorophore. After staining, images were taken at the […]
(§10) midplane of cells using an LSM880 confocal laser-scanning microscope (Carl Zeiss AG, Jena, […]
(§11) Germany). PY3174 was excited at 488 nm and emitted intensities were measured in two wavelength […]
(§12) ranges between 500 and 540 nm (Iblue) and 650 and 735 nm (Ired), while LysoTracker Deep Red was […]
(§13) excited at 633 nm and emission was detected between 650 and 735 nm. During processing, pixels […]
(§14) corresponding to lysosomal membranes were identified based on the intensity of LysoTracker Deep […]
(§15) Red using a custom-written algorithm under MATLAB. The average value of generalized polarization […]
(§16) (GP) correlating with the degree of membrane hydration (1) was calculated from the data of lysosomal […]
(§17) membrane pixels after background subtraction using […]
(§18) (1 picture or pasted object on this page, not shown here)

JY cells [6] = conditions: 50 μM fatty acid 48 h, LysoTracker Deep Red and 10 µM PY3174 2 h at 37°C, extent similar to cell membrane
Method: as §3, §4, §5, §6, §7, §8, §9, §10, §11, §12, §13, §14, §15, §16, §17, §18

THP-1 cells [7] = test: Membrane hydration, PY3174 generalized polarization, confocal microscopy; type: cell-based, human; conditions: 200 μM sterol 1 h or 50 μM fatty acid 48 h, efficacy order 6KC > cholesterol ≥ 7DHC, all statistically significant
Method: (§19) For these measurements, cells were labeled with 10 μM PY3174 for 20 min at room temperature. […] During processing, segmentation of images into membrane and non-membrane pixels was carried out with the manually seeded watershed algorithm using a custom-written MATLAB program as described previously ([Kovacs et al., 2017]). The average value of general polarization correlating with the degree of membrane compactness ([[…] et al., 2013]) was calculated from the data of cell membrane pixels after background subtraction using […]

JY cells [8] = test: as above; type: cell-based, human; conditions: 200 μM sterol 1 h or 50 μM fatty acid 48 h, efficacy order 6KC > cholesterol ≥ 7DHC, effects of 7DHC and SA not statistically significant
Method: as §19

THP-1 cells [9] = test: Membrane dipole potential, di-8-ANEPPS excitation ratio, spectrofluorometry; type: cell-based, human; conditions: fatty acid 12.5-50 μM for 48 h, result at maximal 50 μM, n = 5
Method: (§20) The human acute monocytic leukemia-derived cell line THP-1 and the human Epstein-Barr virus (EBV) transformed lymphoblastoid cell line JY were obtained from the American Type Culture Collection (Manassas, VA, United States) and cultivated according to their specifications. […] As controls, cells were treated with the corresponding amounts of native MβCD complexes not containing sterols. To study the effects of fatty acids, cells were incubated for 48 h in medium supplemented with saturated stearic acid (SA, Sigma Aldrich), ω-3 polyunsaturated α-linolenic acid (ALA, Sigma Aldrich) or ω-6 polyunsaturated γ-linolenic acid (GLA, Sigma Aldrich) at various concentrations ranging from 12.5 to 50 μM. […] After washing, cells were kept on ice and samples were subsequently warmed to 37°C right before measurements carried out with a Fluorolog-3 spectrofluorometer (Horiba Jobin Yvon, Edison, NJ, United States). During measurements, the cuvette holder was kept at 37°C using a circulating water bath. Excitation spectra were recorded between 380 and 550 nm with the detected emission wavelength set to 660 nm in order to minimize effects of possible changes in membrane fluidity ([Clarke and Kane, 1997]). The ratio of fluorescence intensities integrated between excitation wavelengths 410–440 nm and 490–520 nm was calculated for each sample, which positively correlates with the magnitude of DP ([Clarke and Kane, 1997]; [Kovacs et al., 2017]; [Batta et al., 2020]).

JY cells [10] = test: as above; type: cell-based, human; conditions: fatty acid 12.5-50 μM for 48 h, result at maximal 50 μM, n = 5
Method: as §20

SMILES | TMA-DPH fluorescence anisotropy (inversely correlates with membrane fluidity) (THP-1 cells [1]) | TMA-DPH fluorescence anisotropy (inversely correlates with membrane fluidity) (JY cells [2]) | effect of fatty acid pretreatment on cholesterol-induced DP elevation (Rem, F66) (THP-1 cells [3]) | Rem, F66 (THP-1 cells [3]) | effect of fatty acid pretreatment on cholesterol-induced DP elevation (Rem, F66) (JY cells [4]) | generalized polarization of PY3174 in the lysosomal membranes (THP-1 cells [5]) | generalized polarization of PY3174 in the lysosomal membranes (JY cells [6]) | PY3174 generalized polarization in the cell membrane (inversely correlates with membrane hydration) (THP-1 cells [7]) | PY3174 generalized polarization in the cell membrane (inversely correlates with membrane hydration) (JY cells [8]) | Rexc, di-8-ANEPPS (THP-1 cells [9]) | Rexc, di-8-ANEPPS (JY cells [10])
CCCCC/C=C\C/C=C\C/C=C\CCCCC(=O)O [GLA, γ-linolenic acid] | did not reach statistical significance | did not reach statistical significance | a tendency to augment the cholesterol-induced DP changes | opposite changes | a tendency to augment the cholesterol-induced DP changes | decreased | decreased | reduced | reduced | significant increases | significant increases
CC/C=C\C/C=C\C/C=C\CCCCCCCC(=O)O [ALA, α-linolenic acid] | significantly decreased | significantly decreased | significantly decreased the DP-elevating effect of cholesterol | dose-dependently and significantly increased | significantly decreased the DP-elevating effect of cholesterol | decreased | decreased | reduced | reduced | significantly decreased | significantly decreased
